# Laboratory results published in patent US6472145B2, “Method and composition for modulating amyloidosis” (priority 1998, dated 2002).
# Where two headings read alike, the source gives them in different places.
# Key:
# K695 cells [1] = assay: Endosomal function: uptake of Tf-Tx and Tf-F labelled transferrin; type: cell-based, Human; conditions: 4 hrs; for impairment of endosomal function (decrease in Tf-Tx and Tf-F signals): baf A1 1 μM, NH4Cl 20 mM
# Description: (§1) Endosomal function was assessed by the fluorometric quantitation of the receptor-mediated uptake of both Texas Red and fluoroscein labelled transferrin (Molecular Probes, Eugene, Oreg.)(33-35). K695 cells were maintained as exposed to various treatments as mentioned with the exception that cells were plated at a density 200,000 cells/well in 24-well plates (Corning™). Twenty-four hours after plating, cells were exposed to various treatments in DMEM supplemented with sodium pyruvate (1 mM) and 10% fetal bovine serum. At the same time as drug exposures, both transferrin-Texas Red (Tf-Tx) and transferrin-fluoroscein (Tf-F) (10 μl/ml media of 5 mg/ml stocks in PBS) were added to each well and incubated for 4 hours at 37° C. Each well was then gently washed three times with warm media and uptake of fluorescent probes quantitated at 37° C. using a Cytofluor™ 2350 fluorometric plate reader (Millipore, Mississauga, ON). Quantitation of the non-pH-dependent Tf-Tx fluorescence and the pH-dependent Tf-F fluorescence was determined using excitation filters of 590 nm (bandwidth=20 nm); 485 nm (bandwidth=20 nm) and emission filters of 645 nm (bandwidth=40 nm); 530 nm (bandwidth=25 nm), respectively. Similarly, Lysosomal function was assayed by the uptake of the fluorescent probe, Lysosensor™ Yellow/Blue DND-160 (Molecular Probes, Eugene, Oreg.)(36). Assay of Lysosensor™ uptake was performed in an identical manner to that of the fluorescent labelled transferrin conjugates with the exception that the addition of 10 μl/ml media of Lysosensor™ was taken from a 1 mM stock solution in DMSO. Quantitation of the non-pH-dependent blue fluorescence and the pH-dependent yellow fluorescence was determined using an excitation filter of 360 nm (bandwidth=40 nm) and emission filters of 460 mn (bandwidth=40 nm) and 530 nm (bandwidth =25 nm), respectively. For all three probes examined, relative fluorescence was obtained from subtraction from sister wells which had not been exposed to fluorophores. […]
# K695sw cells [2] = conditions: 5 μM, 500 nM or 50 nM, 24 hours
# Description: Cell viability was quantified based on the exclusion of the membrane impermeant probe, YO-PRO (Molecular Probes, Eugene, Oreg.). K695sw cells were maintained and exposed to vehicle or various concentrations of FCCP as described above with the exception that cells were plated at a density of 20,000 cells/well in 96-well plates (Falcon®). Twenty-four hours after plating, cells were exposed to various treatments in DMEM supplemented with sodium pyruvate (1 mM) and 10% fetal bovine serum. At the same time as drug exposures, YO-PRO (4 μM) was added to each well and its uptake quantified every 30 minutes for 1 day at 37° C. using a Cytofluor™ 2350 fluorometric plate reader (Millipore, Mississauga, ON). As a positive control, all wells were exposed to 0.1% Triton X-100 at the end of the experiment.
# K695sw cells [3] = assay: Quantification of cellular ATP levels (luciferase/luciferin); type: cell-based, Human; conditions: various concentrations, 30 minutes or 4 hours
# Description: 20 μl aliqouts of ATP standards and samples were then assayed for ATP content using a luciferase/luciferin ATP determination kit (A-6608, Molecular Probes, Eugene, Oreg.). ATP-dependent luminescence was quantified using an Optocomp® II luminometer (MGM Instruments, Hamden, Conn.) and ATP levels were determined by extrapolation from a standard curve. […] As a positive control, the effect of combined treatment with various concentrations of sodium azide and 2-deoxy-D-glucose (NaA/DG) was also examined in these studies.
# [4] = system: mitochondrial membrane potential; conditions: 1 μM FCCP; cited from earlier work
# K695 cells [5] = assay: Lysosomal function: Lysosensor Yellow/Blue DND-160 uptake; type: cell-based, Human; conditions: FCCP 5 μM and 500 nM, baf A1 1 μM, NH4Cl 20 mM, 4 hrs
# Description: as §1
# [6] = system: APP carrying the AD-linked double "Swedish" mutation (K695sw cells); conditions: for Aβ release: FCCP 5 μM, 500 nM, 50 nM
# Description: (§2) Human embryonic kidney (HEK) 293 cells stably transfected with either wild-type APP695 (K695 cells) or APP carrying the AD-linked double “Swedish” mutation (K695sw cells)(30) were cultured in DMEM supplemented with sodium pyruvate (1 mM) and 10% fetal calf serum as previously described (31). Cells were plated at 1,000,000 cells per well in 35 mm^2 culture dishes (Corning™) 24 hours prior to drug exposure. Preceding the addition of drugs, cultures are washed once with warm PBS (37° C.) and then exposed to various treatments in DMEM supplemented with sodium pyruvate (1 mM). Cultures were then exposed to either control media, vehicle (0.05% ethanol), or varying concentrations of FCCP (5 μM, 500 nM, 50 nM). Either 30 minutes or 4 hours after the addition of drugs, the media was removed, the cultures washed once with ice-cold PBS, and then harvested in 100 μl of ice-cold lysis buffer containing 20 mM MOPS (pH 7.2), 5 mM EDTA, 0.01% NP-40, 75 mM β-glycerol phosphate, […], […], 50 mM phosphatase substrate, […], and 1 mg/ml each of leupeptin, aprotinin and pepstatin.
# (§3) To examine extracellular APP fragments, the media was retained and centrifuged at 4° C. for 10 min at 16,000 X g to remove cellular debris. Extracellular protein was then precipitated by 10% trichloroacetic acid as previously described (31). Subsequently, secreted APPsα was determined by 10% Tris-Glycine SDS-PAGE Western Blot analysis using the monoclonal antibody WO-2, generated against the first 16 amino acids of the N-terminal region of Aβ (32). Similarly, extracellular Aβ release was examined by 16% Tris-Tricine SDS-PAGE Western Blot analysis using the WO-2 antibody (32). For examination of intracellular APP fragments, cultures were harvested in ice-cold lysis buffer and then sonicated for 8 seconds on ice. Cellular protein levels were quantified using the BCA protein assay (Pierce, Rockford, Ill.) and 10 μg of cellular protein were then separated by either 10% Tris-Glycine or 16% Tris-Tricine SDS-PAGE. Intracellular C100 and total APP were quantitated, respectively, by 16% Tris-Tricine Western Blot analysis using the WO-2 antibody and 10% Tris-Glycine Western Blot analysis using an anti-APP N-terminal antibody (22C11, Boehringer Mannheim, Laval, QC). A diagram of the catabolic fragments of APP and the epitopes to which each antibody binds is depicted in FIG. 1. […] The wavy line represents the plasma membrane. The enzyme α-secretase (α-left) cleaves APP within the Aβ sequence (represented by the heavy line), resulting in release of the ectodomain fragment known as APPsα. The enzymes β and γ secretase (β, γ, right) sequentially cleave APP on either side of the Aβ sequence. β secretase cleavage results in the release of the ectodomain fragment known as APPsβ and production of the cellular fragment known as C100; following γ-secretase cleavage, extracellular Aβ is released. Probing the cellular fraction with antibody 22C11 identifies total cellular APP. Probing the cellular fraction with WO-2 identifies C100 (distinguished by molecular weight). Probing the extracellular fraction with WO-2 identifies both APPsα and Aβ (distinguished by molecular weight).
# (§4) Cellular (C100 and total APP) and extracellular (APPsα and Aβ ) APP catabolic fragments were separated using SDS PAGE with either 10% Tris-Glycine (for APPsα and total APP) or 16% Tris-Tricine (for C100 and Aβ) gels. Following electrophoretic separation, proteins were transferred to nitrocellulose membranes and probed with either the monoclonal antibody WO-2 to detect C100, APPsα and Aβ, or 22C11 to detect total cellular APP. Immunoreactive bands were visualized using ECL detection (Amersham, Oakville, ON) and analyzed by standard autoradiographic and densitometric techniques as described (31).
# [7] = system: wild-type APP695 (K695 cells); conditions: 4 hours
# Description: as §2, §3, §4
# cellular ATP levels = conditions: 30 μM FCCP for 2 hours; cited from earlier work
# APP = conditions: background; NH4Cl at high concentrations; cited from earlier work
# K695sw cells [8] = conditions: previous studies; cited from earlier work
# [9] = system: cells expressing wild-type APP (K695 cells); conditions: previous studies; cited from earlier work
compound,measurement,setting,value
"N#CC(C#N)=NNc1ccc(OC(F)(F)F)cc1 [FCCP, carbonyl cyanide p-(trifluoromethoxy)phenylhydrazone]",endosomal functioning (Tf-Tx and Tf-F signals),K695 cells [1]; FCCP 5 μM and 500 nM,did not significantly alter endosomal functioning
same,cell death as measured by membrane exclusion (YO-PRO),K695sw cells [2],no increase in cell death
same,cellular ATP levels,K695sw cells [3],did not alter cellular ATP levels at any of the concentrations or time points measured
same,mitochondrial membrane potential,[4],sufficient to alter mitochondrial membrane potential
same,lysosomal function (Lysosensor fluorescence),K695 cells [5],"reductions in lysosomal function, albeit not as profound"
same,production of the ectodomain fragment APPsα (APPsα release),[6]; 30 min and 4 hours,only affected by 4 hour exposure to 5 μM FCCP
same,formation of the C100 fragment (cellular C100),[6]; 4 hours,concentration-dependent decrease in the formation of the C100 fragment
same,maturation of APP via N'/O' linked glycosylation,[6]; 4 hours,neither total cellular levels of APP nor the maturation of APP via N′/O′ linked glycosylation were affected
same,total cellular levels of APP,[6]; 4 hours,neither total cellular levels of APP nor the maturation of APP via N′/O′ linked glycosylation were affected
same,Aβ release,[6]; 30 min,concentration-dependent decrease in Aβ release
same,Aβ release,[6]; 4 hours,decreases in Aβ release were even more pronounced
same,APPsα production,[7],marked concentration-dependent decrease in APPsα production
same,Aβ production,[7],clearly inhibited Aβ production in a concentration-dependent manner
same,maturation of APP,[7],unaffected
same,total levels of cellular APP,[7],unaffected
same,cellular ATP levels,cellular ATP levels,sufficient to modestly decrease cellular ATP levels
"Cl.N [NH4Cl, ammonium chloride]",impairment of endosomal function (decrease in Tf-Tx and Tf-F signals),K695 cells [1],approximately 50%
same,lysosomal function (Lysosensor fluorescence),K695 cells [5],profound reductions in lysosomal functioning
same,APP proteolytic processing / APP catabolism,APP,decrease APP proteolytic processing
"CO/C1=C\C(C)=C\[C@@H](C)[C@@H](O)[C@@H](C)C/C(C)=C/C=C/[C@H](OC)[C@@H]([C@@H](C)[C@@H](O)[C@H](C)[C@@]2(O)C[C@@H](O)[C@H](C)[C@@H](C(C)C)O2)OC1=O [baf A1, bafilomycin A1]",Aβ production,K695sw cells [8],reduced Aβ production
same,impairment of endosomal function (decrease in Tf-Tx and Tf-F signals),K695 cells [1],approximately 50%
same,lysosomal function (Lysosensor fluorescence),K695 cells [5],profound reductions in lysosomal functioning
same,APP proteolytic processing / APP catabolism,APP,alterations in APP catabolism which are both cell-type and APP mutation specific
same,Aβ production,[9],lack of effect
CC[C@@]1([C@@H]2O[C@@H]([C@H]3O[C@@](O)(CO)[C@H](C)C[C@@H]3C)C[C@@H]2C)CC[C@H]([C@]2(C)CC[C@]3(C[C@H](O)[C@@H](C)[C@@H]([C@@H](C)[C@@H](OC)[C@H](C)C(=O)O)O3)O2)O1 [monensin],APP proteolytic processing / APP catabolism,APP,decrease APP proteolytic processing
